“Also recorded” adds a separate entry of the source. Where two headings read alike, the source gives them in different places.
Tests used:
SARS-CoV-2 [1] = settings: lung epithelial cells; ref 41 (Nguyen et al.); cited from earlier work
[2] = tested on: VSV-pseudotypes bearing SARS-CoV-1 S protein; assay: microbe, parasite or virus in culture; type: cell-based; settings: for inhibitory effect on SARS-CoV-1 virus entry (in words): 1-100 μg/mL
[3] = tested on: VSV-pseudotypes bearing SARS-CoV-2 S protein; assay: microbe, parasite or virus in culture; type: cell-based; settings: for inhibitory effect on SARS-CoV-2 entry (in words): 1-100 μg/mL; for IC50: Severe acute respiratory syndrome coronavirus 2, HEK-293T, read-out: IC50, SARS-CoV-2 entry
[4] = tested on: influenza virus A/Puerto Rico/8/34; type: cell-based
[5] = tested on: influenza virus A/Puerto Rico/8/34; type: cell-based; remark: listed apart in the source
SARS-CoV-2 [6] = settings: ref 43 (van Breemen et al.); cited from earlier work
influenza virus = settings: cited from earlier work

SMILES: C=C(C)[C@@H]1CCC(CO)=C[C@H]1c1c(O)cc(CCCCC)cc1O [7-OH-CBD]
- inhibition of SARS-CoV-2 replication (in words) (SARS-CoV-2 [1]): inhibit SARS-CoV-2 replication

SMILES: C=C(C)[C@@H]1CCC(C)=C[C@H]1c1c(O)cc(CCCCC)cc1O [CBD, cannabidiol]
- inhibition of SARS-CoV-2 replication (in words) (SARS-CoV-2 [1]): inhibit SARS-CoV-2 replication

SMILES: C=C(C)C1CCC(C)=CC1c1c(OC(=O)C(C)c2ccc(CC(C)C)cc2)cc(CCCCC)cc1OC(=O)C(C)c1ccc(CC(C)C)cc1 (centres unmarked) [CBD-I]
- inhibitory effect on SARS-CoV-1 virus entry (in words) [2]: did not find any significant inhibitory effect
- inhibitory effect on SARS-CoV-2 entry (in words) [3]: significantly inhibited; also recorded: significantly reduced
- IC50 [3]: < 1 µg/mL

SMILES: C=C(C)C1CCC(C)=CC1c1c(OC(=O)C(C)c2cccc(C(=O)c3ccccc3)c2)cc(CCCCC)cc1OC(=O)C(C)c1cccc(C(=O)c2ccccc2)c1 (centres unmarked) [CBD-K]
- inhibitory effect on SARS-CoV-1 virus entry (in words) [2]: did not find any significant inhibitory effect
- inhibitory effect on SARS-CoV-2 entry (in words) [3]: non-significant decrease in luciferase activity; also recorded: did not significantly affect

SMILES: C=C(C)C1CCC(C)=CC1c1c(OC(=O)C(C)c2ccc3cc(OC)ccc3c2)cc(CCCCC)cc1OC(=O)C(C)c1ccc2cc(OC)ccc2c1 (centres unmarked) [CBD-N]
- viral copy numbers in the supernatants vs mock [4]: did not find any effect
- fold reduction in luciferase activity, SARS-CoV-1 ([2]; 1 μg/mL): approximately 2 fold
- fold decrease in luciferase activity, SARS-CoV-1 ([2]; 50 μg/mL): greater than 10 fold
- fold decrease in luciferase activity, SARS-CoV-1 ([2]; 100 μg/mL): greater than 10 fold
- inhibitory effect on SARS-CoV-1 virus entry (in words) [2]: significant reduction; also recorded: significant inhibitory activity
- IC50 ([2]; Severe acute respiratory syndrome coronavirus, HEK-293T, read-out: IC50, SARS-CoV-1 virus entry): < 1 µg/mL
- fold inhibition of SARS-CoV-2 entry [3]: greater than 10 fold
- inhibitory effect on SARS-CoV-2 entry (in words) [3]: significantly inhibited; also recorded: significantly reduced
- IC50 [3]: < 1 µg/mL
- viral copy numbers in the supernatants vs mock [5]: did not find any effect

SMILES: C=C(C)[C@@H]1CCC(C)=C[C@H]1c1c(O)cc(CCCCC)c(C(=O)O)c1O [CBDA, cannabidiolic acid]
- block of SARS-CoV-2 entry into cells (in words) (SARS-CoV-2 [6]): significantly block SARS-CoV-2 entry

SMILES: CCCCCc1cc(O)c(C/C=C(\C)CCC=C(C)C)c(O)c1C(=O)O [CBGA, cannabigerolic acid]
- block of SARS-CoV-2 entry into cells (in words) (SARS-CoV-2 [6]): significantly block SARS-CoV-2 entry

SMILES: COc1ccc2cc([C@H](C)C(=O)O)ccc2c1 [naproxen]
- anti-influenza virus activity (in words) (influenza virus): broad anti-influenza virus activity

— article PMC10383849, “Novel Molecular Consortia of Cannabidiol with Nonsteroidal Anti-Inflammatory Drugs Inhibit Emerging Coronaviruses’ Entry” (Pathogens, 2023)
